According to patent US6403532B1, “Herbicidal synergistic composition, and method of controlling weeds” (Syngenta Crop Protection, Inc., priority 1995, dated 2002):

Tests used:
Type in all cases: in vivo
transplanted rice = experiment: Herbicidal activity in paddy rice (transplanted), run-in method: crop plant tolerance
Experimental: (§1) Herbicidal Activity in Paddy Rice (transplanted):
(§2) The test plants are sown or planted in standard soil in shallow plastic containers under greenhouse conditions. The containers are then filled with water to soil level. After 3 days, the water level is raised by 2 cm, and the test substances are applied in the form of an aqueous suspension (Formulation Example F7, c)) by the run-in method (application into the water). The test plants are then grown on in the greenhouse under optimal conditions. 25 days after application, the test is evaluated using a % scale (100%=complete damage, 0%=no activity).
(§3) Test plants: transplanted rice, Sagittaria pygmaea, Scirpus juncoides and Heterantera.

Scirpus juncoides = experiment: Herbicidal activity in paddy rice (transplanted), run-in method: Scirpus juncoides; conditions: 25 days after application
From the text: (§4) A synergistic effect is always present when the activity of the active ingredient combination I and II, and/or III, and/or IV and/or V exceeds the total of the activity of the active ingredients applied singly.
(§5) The expected herbicidal activity Ae for a given combination of two herbicides can be calculated as follows (cf. COLBY, S. R., “Calculating synergistic and antagonistic response of herbicide combinations”, Weeds 15, pages 20-22, 1967):
(§6) X=per cent herbicidal activity in the treatment with the compound of formula I using a rate of application of p kg per hectare in comparison with untreated control (=0%).
(§7) Y=per cent herbicidal activity in the treatment with the compound of formulae II to V using a rate of application of q kg per hectare in comparison with untreated control.
(§8) Ae=expected herbicidal activity (per cent herbicidal activity comparison with the untreated control) after treatment with the compounds of formulae I and II to V at a rate of application of p+q kg of active ingredient per hectare.
(§9) If the activity actually observed exceeds the expected value Ae, synergism is present.
as §1, §2, §3

Heterantera = experiment: Herbicidal activity in paddy rice (transplanted), run-in method: Heterantera; conditions: 25 days after application
From the text: as §4, §5, §6, §7, §8, §9, §1, §2, §3

Sagittaria pygmaea = experiment: Herbicidal activity in paddy rice (transplanted), run-in method: Sagittaria pygmaea; conditions: 25 days after application
From the text: as §4, §5, §6, §7, §8, §9, §1, §2, §3
Table B1: Experiments in transplanted rice with Sagittaria pygmaea, using the run-in method

[1] = 500 g of active ingredient/ha, run-in method, 25 days after application
[2] = 60 g of active ingredient/ha, run-in method, 25 days after application
[3] = 250 g of active ingredient/ha, run-in method, 25 days after application

SMILES: CCOC(=O)c1cnn(C)c1S(=O)(=O)NC(=O)Nc1nc(OC)cc(OC)n1 [1.2]
- Crop plant transplanted rice (transplanted rice; 8 g of active ingredient/ha, run-in method, 25 days after application): 0%
- Crop plant transplanted rice (transplanted rice; 15 g of active ingredient/ha, run-in method, 25 days after application): 0%
- Crop plant transplanted rice (transplanted rice; 30 g of active ingredient/ha, run-in method, 25 days after application): 0%
- Weed Scirpus junc. (Scirpus juncoides; 15 g of active ingredient/ha): 0%
- Weed Scirpus junc. (Scirpus juncoides; 30 g of active ingredient/ha): 20%
- Weed Heterantera (Heterantera; 8 g of active ingredient/ha): 0%
- Weed Heterantera (Heterantera; 15 g of active ingredient/ha): 0%
- Weed Heterantera (Heterantera; 30 g of active ingredient/ha): 0%

SMILES: COCCOc1ccccc1S(=O)(=O)NC(=O)Nc1nc(OC)nc(OC)n1 [1.3]
- Crop plant transplanted rice (transplanted rice; 6 g of active ingredient/ha, run-in method, 25 days after application): 0%
- Crop plant transplanted rice (transplanted rice; 12 g of active ingredient/ha, run-in method, 25 days after application): 0%
- Crop plant transplanted rice (transplanted rice; 24 g of active ingredient/ha, run-in method, 25 days after application): 15%
- Weed Sagittaria pygm. (Sagittaria pygmaea; 6 g of active ingredient/ha): 70%
- Weed Sagittaria pygm. (Sagittaria pygmaea; 12 g of active ingredient/ha): 75%
- Weed Sagittaria pygm. (Sagittaria pygmaea; 24 g of active ingredient/ha): 94%

SMILES: CN(C(=O)COc1nc2ccccc2s1)c1ccccc1 [2.1, 2-(1,3-benzothiazol-2-yloxy)-N-methylacetanilide]
- Crop plant transplanted rice (transplanted rice; in vivo): 0%
- Weed Sagittaria pygm. (Sagittaria pygmaea; 500 g of active ingredient/ha): 0%
- Weed Sagittaria pygm. (Sagittaria pygmaea; 1000 g of active ingredient/ha): 0%
- Weed Scirpus junc. (Scirpus juncoides; 125 g of active ingredient/ha): 0%
- Weed Scirpus junc. (Scirpus juncoides; 250 g of active ingredient/ha): 65%
- Weed Scirpus junc. (Scirpus juncoides; 500 g of active ingredient/ha): 94%
- Weed Heterantera (Heterantera; 500 g of active ingredient/ha): 40%
- Weed Heterantera (Heterantera; 1000 g of active ingredient/ha): 50%

SMILES: CCC(=O)Nc1ccc(Cl)c(Cl)c1 [2.2, 3′,4′-dichloropropionanilide]
- Crop plant transplanted rice (transplanted rice; [1]): 0%
- Crop plant transplanted rice (transplanted rice; 1000 g of active ingredient/ha, run-in method, 25 days after application): 0%
- Weed Sagittaria pygm. (Sagittaria pygmaea; 500 g of active ingredient/ha): 0%
- Weed Sagittaria pygm. (Sagittaria pygmaea; 1000 g of active ingredient/ha): 0%
- Weed Scirpus junc. (Scirpus juncoides; 500 g of active ingredient/ha): 0%
- Weed Scirpus junc. (Scirpus juncoides; 1000 g of active ingredient/ha): 35%
- Weed Heterantera (Heterantera; 1000 g of active ingredient/ha): 0%

SMILES: CCCOCCN(C(=O)CCl)c1c(CC)cccc1CC [2.3, 2-chloro-2′,6′-diethyl-N-(2-propoxyethyl)acetanilide]
- Crop plant transplanted rice (transplanted rice; [2]): 0%
- Crop plant transplanted rice (transplanted rice; [3]): 0%
- Crop plant transplanted rice (transplanted rice; 375 g of active ingredient/ha, run-in method, 25 days after application): 0%
- Crop plant transplanted rice (transplanted rice; [1]): 0%
- Weed Sagittaria pygm. (Sagittaria pygmaea; 250 g of active ingredient/ha): 25%
- Weed Sagittaria pygm. (Sagittaria pygmaea; 375 g of active ingredient/ha): 55%
- Weed Sagittaria pygm. (Sagittaria pygmaea; 500 g of active ingredient/ha): 50%
- Weed Heterantera (Heterantera; 60 g of active ingredient/ha): 0%
- Weed Heterantera (Heterantera; 375 g of active ingredient/ha): 80%

SMILES: CCCCOC(=O)[C@@H](C)Oc1ccc(Oc2ccc(C#N)cc2F)cc1 [3.1, butyl (R)-2-[4-(4-cyano-2-fluorophenoxy)phenoxy]propionate]
- Crop plant transplanted rice (transplanted rice; 125 g of active ingredient/ha, run-in method, 25 days after application): 0%
- Crop plant transplanted rice (transplanted rice; [3]): 0%
- Weed Sagittaria pygm. (Sagittaria pygmaea; 125 g of active ingredient/ha): 0%
- Weed Sagittaria pygm. (Sagittaria pygmaea; 250 g of active ingredient/ha): 0%
- Weed Scirpus junc. (Scirpus juncoides; 125 g of active ingredient/ha): 0%
- Weed Scirpus junc. (Scirpus juncoides; 250 g of active ingredient/ha): 0%
- Weed Heterantera (Heterantera; 125 g of active ingredient/ha): 0%
- Weed Heterantera (Heterantera; 250 g of active ingredient/ha): 0%

SMILES: COc1cc(OC)nc(Sc2cccc3c2C(=O)OC3C)n1 (stereo not shown) [I]
- Crop plant transplanted rice (transplanted rice; [2]): 0%
- Crop plant transplanted rice (transplanted rice; 120 g of active ingredient/ha, run-in method, 25 days after application): 0%
- Crop plant transplanted rice (transplanted rice; 240 g of active ingredient/ha, run-in method, 25 days after application): 0%
- Weed Sagittaria pygm. (Sagittaria pygmaea; 60 g of active ingredient/ha): 0%
- Weed Sagittaria pygm. (Sagittaria pygmaea; 120 g of active ingredient/ha): 0%
- Weed Sagittaria pygm. (Sagittaria pygmaea; 240 g of active ingredient/ha): 0%
- Weed Scirpus junc. (Scirpus juncoides; 60 g of active ingredient/ha): 0%
- Weed Scirpus junc. (Scirpus juncoides; 120 g of active ingredient/ha): 50%
- Weed Scirpus junc. (Scirpus juncoides; 240 g of active ingredient/ha): 92%
- Weed Heterantera (Heterantera; 60 g of active ingredient/ha): 0%
- Weed Heterantera (Heterantera; 120 g of active ingredient/ha): 0%
- Weed Heterantera (Heterantera; 240 g of active ingredient/ha): 70%

SMILES: Clc1cc(Cl)nc(-c2ccccc2)n1 [VI, 4,6-dichloro-2-phenylpyrimidine]
- Crop plant transplanted rice (transplanted rice; in vivo): 0%
- Weed Sagittaria pygm. (Sagittaria pygmaea; 125 g of active ingredient/ha): 0%
- Weed Heterantera (Heterantera; 125 g of active ingredient/ha): 0%
